Read-outs that look alike come from different tables or passages of the source.
How the values were obtained:
[1] = system: neural progenitor cells (NPC); details: cited from earlier work; for influence on the proliferation of NPCs: treatment of NPCs with leukotriene
[2] = system: CysLT1R-mediated amyloid-beta generation; details: cited from earlier work
[3] = Body weight on day 1 and day 42 of treatment; assay type: in vivo, rat; details: young and old rats, 10 mg kg^-1 p.o. daily
Method: For the analysis of cell survival and cell differentiation, all rats received intraperitoneal injections of BrdU (Sigma, Germany) at 50 mg kg^−1 of body weight dissolved in 0.9% saline solution on day 12, 13, 14 and 15.
GPR17 is highly expressed in food-intake-regulating Agrp Neurons, and intraventricular infusion of GPR17 agonists elevates food intake (Ren, 2012, Cell, 8; 149(6):1314-26). […] Therefore, each rat was weighed at the beginning of the experiment (day 1) and directly before the perfusion (day 42).

neural stem cell (NSC) = details: cited from earlier work
young rats = details: intraperitoneal, combination treatment with rofecoxib; cited from earlier work
[4] = system: Alzheimer's disease patients; details: cited from earlier work

In the case of `CCCCC/C=C\C\C=C/C=C/C=C/[C@@H](SC[C@H](NC(=O)CC[C@H](N)C(=O)O)C(=O)NCC(=O)O)[C@@H](O)CCCC(=O)O` [Leukotriene C4], the “influence on the proliferation of NPCs” value [1] is given as “no influence”.

For `CCCCC/C=C\C\C=C/C=C/C=C/[C@@H](SC[C@H](N)C(=O)NCC(=O)O)[C@@H](O)CCCC(=O)O` [Leukotriene D4], the “influence on the proliferation of NPCs” value [1] is listed as “no influence” and the effect on cognition ([2]; 3 month old mice) is listed as “induce cognitive impairment”.

For `CC(C)(O)c1ccccc1CC[C@@H](SCC1(CC(=O)O)CC1)c1cccc(/C=C/c2ccc3ccc(Cl)cc3n2)c1` [Montelukast, montelukast], the “body weight vs vehicle treated counterparts” value [3] is listed as “did not differ”, the “body weight vs vehicle treated counterparts” value ([3]; listed as montelukast) is listed as “remained stable” and the NPC proliferation rate ([1]; 1 μM) is listed as “did not alter”. For the same compound, the NPC proliferation ([1]; 10 μM) was “increased proliferation”, the NPC proliferation ([1]; 15 μM) was “increased proliferation” and the NPC proliferation rate ([1]; 30 μM) was “did not alter”. The NPC proliferation ([1]; 50 μM) was “significant reduction”, the NPC proliferation ([1]; 100 μM) was “significant reduction” and the NSC proliferation (neural stem cell (NSC); 15 μM) was “significantly increase”. For the same compound, the “proliferative potential of the NSCs” value (neural stem cell (NSC); 30 μM) was “significantly reduced”, the “proliferative potential of the NSCs” value (neural stem cell (NSC); 100 μM) was “significantly reduced” and the “effect against kainic acid-induced cognitive dysfunction in combination with rofecoxib” value (young rats) was “potentiates the protective effect of rofecoxib”.

In the case of `COc1ccc2c(c1)c(CC(=O)O)c(C)n2C(=O)c1ccc(Cl)cc1` [indomethacin], the mental functions [4] is listed as “stabilize mental functions”.

In the case of pranlukast, the “leukotriene D4-induced increase in amyloid-beta generation” value ([2]; 3 month old mice, injected bilaterally 2.5 mm below the dura) is given as “inhibited” and the “learning impairment and memory loss caused by leukotriene D4 treatment” value ([2]; mice, sub-dura injection) is given as “improves”.

Source: US20150322049A1, “LEUKOTRIENE PATHWAY ANTAGONISTS FOR THE TREATMENT OF DEMENTIA, COGNITIVE DEFICITS IN PARKINSON'S DISEASE AND/OR LEARNING AND MEMORY DEFICIENCIES IN PARKINSON'S DISEASE” (priority 2012, published 2015)
